From ChEMBL document CHEMBL6096734, “Design, Synthesis and Anti-Inflammatory Evaluation of 3-Substituted 5-Amidobenzoate Derivatives as Novel P2Y14 Receptor Antagonists via Structure-Guided Molecular Hybridization” (J Med Chem, 2025)

Columns and labels:
P2Y purinoceptor 1 = P2Y purinoceptor 1 (Homo sapiens, UniProt P47900); test: Antagonist activity at human P2Y1R stably expressed in HEK293 cells assessed as inhibition of ADP-induced IP3 accumulation preincubated with compound for 30 mins followed by ADP addition by ELISA method; assay type: functional, cell-based
P2Y purinoceptor 2 = P2Y purinoceptor 2 (Homo sapiens, UniProt P41231); test: Antagonist activity at human P2Y2R stably expressed in HEK293 cells assessed as inhibition of UTP-induced IP3 accumulation preincubated with compound for 30 mins followed by UTP addition by ELISA method; assay type: functional, cell-based
P2Y purinoceptor 4 = P2Y purinoceptor 4 (Homo sapiens, UniProt P51582); test: Antagonist activity at human P2Y4R stably expressed in HEK293 cells assessed as inhibition of UTP-induced IP3 accumulation preincubated with compound for 30 mins followed by UTP addition by ELISA; assay type: functional, cell-based
P2Y purinoceptor 6 = P2Y purinoceptor 6 (Homo sapiens, UniProt Q15077); test: Antagonist activity at human P2Y6R stably expressed in HEK293 cells assessed as inhibition of UDP-induced IP3 accumulation preincubated with compound for 30 mins followed by UDP addition by ELISA; assay type: functional, cell-based
P2Y purinoceptor 12 = P2Y purinoceptor 12 (Homo sapiens, UniProt Q9H244); test: Antagonist activity at human P2Y12R stably expressed in HEK293 cells assessed as inhibition of 2-MeSADP-induced IP3 accumulation preincubated with compound for 30 mins followed by 2-MeSADP addition by ELISA; assay type: functional, cell-based
Cytochrome P450 1A2 = target: T1, Cytochrome P450 1A2 (Homo sapiens, UniProt P05177); test: Inhibition of CYP1A2 in human liver microsomes using phenacetin as substrate measured after 30 mins by LC/MS analysis; assay type: ADME, Microsome
T1 sequence (P05177 whole entry): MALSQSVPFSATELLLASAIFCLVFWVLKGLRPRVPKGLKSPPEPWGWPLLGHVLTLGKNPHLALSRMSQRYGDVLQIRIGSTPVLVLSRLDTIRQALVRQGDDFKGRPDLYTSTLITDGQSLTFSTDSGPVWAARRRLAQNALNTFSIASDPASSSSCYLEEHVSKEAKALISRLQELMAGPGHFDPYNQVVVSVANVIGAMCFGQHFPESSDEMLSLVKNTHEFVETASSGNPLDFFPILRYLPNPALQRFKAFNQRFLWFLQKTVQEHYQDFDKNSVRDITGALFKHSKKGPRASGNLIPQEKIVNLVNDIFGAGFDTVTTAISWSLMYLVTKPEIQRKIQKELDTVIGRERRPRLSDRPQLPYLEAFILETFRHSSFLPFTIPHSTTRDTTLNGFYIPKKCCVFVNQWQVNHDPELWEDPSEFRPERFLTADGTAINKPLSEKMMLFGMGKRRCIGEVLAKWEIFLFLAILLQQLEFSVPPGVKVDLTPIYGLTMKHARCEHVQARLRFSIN

Cytochrome P450 2C9 = Cytochrome P450 2C9 (Homo sapiens, UniProt P11712); test: Inhibition of CYP2C9 in human liver microsomes using diclofenac as substrate measured after 30 mins by LC/MS analysis; assay type: ADME, Microsome
Cytochrome P450 2C19 = Cytochrome P450 2C19 (Homo sapiens, UniProt P33261); test: Inhibition of CYP2C19 in human liver microsomes using mephenytoin as substrate measured after 30 mins by LC/MS analysis; assay type: ADME, Microsome
Cytochrome P450 2D6 = Cytochrome P450 2D6 (Homo sapiens, UniProt P10635); test: Inhibition of CYP2D6 in human liver microsomes using dextromethorphan as substrate measured after 30 mins by LC/MS analysis; assay type: ADME, Microsome
Cytochrome P450 3A4 = Cytochrome P450 3A4 (Homo sapiens, UniProt P08684); test: Inhibition of CYP3A4 in human liver microsomes using midazolam as substrate measured after 30 mins by LC/MS analysis; assay type: ADME, Microsome
[1] = Stability of the compound in stimulated intestinal fluid assessed as half life; assay type: physicochemical; details: simulated intestinal fluid
[2] = Stability of the compound in stimulated gastric fluid assessed as half life; assay type: physicochemical; details: simulated gastric fluid
[3] = Metabolic stability in human liver microsomes assessed as intrinsic clearance at […] measured upto 45 mins in presence of NADPH by LC-MS analysis; assay type: ADME, Microsome; details: read-out: CLH
[4] = Metabolic stability in human liver microsomes assessed as half life at […] measured upto 45 mins in presence of NADPH by LC-MS analysis; assay type: ADME, Microsome
[5] = Cmax in male Sprague-Dawley rat at 10 mg/kg, iv measured upto 24 hrs; assay type: ADME, organism-based; details: in vivo
[6] = Half life in male Sprague-Dawley rat at 10 mg/kg, iv measured upto 24 hrs; assay type: ADME, organism-based; details: in vivo
[7] = Tmax in male Sprague-Dawley rat at 10 mg/kg, iv measured upto 24 hrs; assay type: ADME, organism-based; details: in vivo
[8] = AUC (0 to 24 hrs) in male Sprague-Dawley rat at 10 mg/kg, iv measured upto 24 hrs; assay type: ADME, organism-based; details: in vivo
[9] = Clearance in male Sprague-Dawley rat at 10 mg/kg, iv measured upto 24 hrs; assay type: ADME, organism-based; details: in vivo
[10] = Cmax in male Sprague-Dawley rat at 20 mg/kg, po measured upto 24 hrs; assay type: ADME, organism-based; details: in vivo
[11] = Half life in male Sprague-Dawley rat at 20 mg/kg, po measured upto 24 hrs; assay type: ADME, organism-based; details: in vivo
[12] = Tmax in male Sprague-Dawley rat at 20 mg/kg, po measured upto 24 hrs; assay type: ADME, organism-based; details: in vivo
[13] = AUC (0 to 24 hrs) in male Sprague-Dawley rat at 20 mg/kg, po measured upto 24 hrs; assay type: ADME, organism-based; details: in vivo
[14] = Clearance in male Sprague-Dawley rat at 20 mg/kg, po measured upto 24 hrs; assay type: ADME, organism-based; details: in vivo
[15] = Oral bioavailability in male Sprague-Dawley rat at 20 mg/kg measured upto 24 hrs; assay type: ADME, organism-based; details: in vivo
RAW264.7 [16] = test: Cytotoxicity in mouse Raw264.7 cells at <80 uM incubated for 24 hrs by SRB method; assay type: toxicity, cell-based; details: raw264.7, 24 h
RAW264.7 [17] = test: Anti-inflammatory activity in LPS-induced ALI in mouse RAW264.7 cells assessed as decrease in intracellular ROS level by DCFH-DA staining based flow cytometry analysis (reference value: 91.2%); assay type: functional; design: scale not given: the % may be the effect or the level left
RAW264.7 [18] = test: Induction of pyroptosis in LPS induced mouse RAW264.7 cells by caspase-1/PI staining based flow cytometry (reference value: 49.6 %); assay type: functional

Sequence of P2Y purinoceptor 1 (P47900 whole entry): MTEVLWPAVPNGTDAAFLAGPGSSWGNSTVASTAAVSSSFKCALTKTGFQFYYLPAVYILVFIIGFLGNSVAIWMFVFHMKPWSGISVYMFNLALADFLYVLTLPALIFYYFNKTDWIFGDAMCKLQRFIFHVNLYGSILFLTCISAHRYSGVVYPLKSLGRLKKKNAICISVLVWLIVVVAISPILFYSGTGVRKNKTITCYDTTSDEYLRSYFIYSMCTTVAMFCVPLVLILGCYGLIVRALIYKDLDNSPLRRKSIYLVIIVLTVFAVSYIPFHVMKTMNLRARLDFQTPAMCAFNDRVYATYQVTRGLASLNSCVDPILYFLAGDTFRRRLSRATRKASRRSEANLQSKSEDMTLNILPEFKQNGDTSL
Sequence of P2Y purinoceptor 4 (P51582 whole entry): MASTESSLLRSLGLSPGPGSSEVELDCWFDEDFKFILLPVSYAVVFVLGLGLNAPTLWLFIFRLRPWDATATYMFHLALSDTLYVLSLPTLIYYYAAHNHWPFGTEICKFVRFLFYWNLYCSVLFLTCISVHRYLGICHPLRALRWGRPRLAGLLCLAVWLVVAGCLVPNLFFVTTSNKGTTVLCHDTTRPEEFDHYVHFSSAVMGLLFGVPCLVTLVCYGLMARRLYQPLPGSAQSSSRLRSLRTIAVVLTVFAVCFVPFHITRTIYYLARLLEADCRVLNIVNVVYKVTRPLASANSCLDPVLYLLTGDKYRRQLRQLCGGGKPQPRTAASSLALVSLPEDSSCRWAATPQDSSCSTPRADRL
Sequence of P2Y purinoceptor 2 (P41231 whole entry): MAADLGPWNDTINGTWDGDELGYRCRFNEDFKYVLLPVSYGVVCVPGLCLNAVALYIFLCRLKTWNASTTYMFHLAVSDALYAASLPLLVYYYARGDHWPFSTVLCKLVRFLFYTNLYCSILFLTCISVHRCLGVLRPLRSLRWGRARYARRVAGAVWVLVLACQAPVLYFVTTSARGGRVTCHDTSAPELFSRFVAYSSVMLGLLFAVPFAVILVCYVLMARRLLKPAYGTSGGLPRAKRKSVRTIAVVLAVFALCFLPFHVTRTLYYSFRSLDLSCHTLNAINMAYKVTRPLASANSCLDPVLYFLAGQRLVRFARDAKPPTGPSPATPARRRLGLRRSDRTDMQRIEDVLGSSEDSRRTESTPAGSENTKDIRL
Sequence of P2Y purinoceptor 6 (Q15077 whole entry): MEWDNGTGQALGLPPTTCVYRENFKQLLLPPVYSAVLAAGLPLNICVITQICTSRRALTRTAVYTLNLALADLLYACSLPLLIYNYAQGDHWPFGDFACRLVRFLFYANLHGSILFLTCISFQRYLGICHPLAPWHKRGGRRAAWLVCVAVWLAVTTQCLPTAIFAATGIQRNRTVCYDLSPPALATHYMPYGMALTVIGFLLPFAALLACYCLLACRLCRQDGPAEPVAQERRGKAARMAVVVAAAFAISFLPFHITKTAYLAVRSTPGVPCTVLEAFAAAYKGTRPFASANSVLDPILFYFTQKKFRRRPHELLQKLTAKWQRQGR
Sequence of P2Y purinoceptor 12 (Q9H244 whole entry): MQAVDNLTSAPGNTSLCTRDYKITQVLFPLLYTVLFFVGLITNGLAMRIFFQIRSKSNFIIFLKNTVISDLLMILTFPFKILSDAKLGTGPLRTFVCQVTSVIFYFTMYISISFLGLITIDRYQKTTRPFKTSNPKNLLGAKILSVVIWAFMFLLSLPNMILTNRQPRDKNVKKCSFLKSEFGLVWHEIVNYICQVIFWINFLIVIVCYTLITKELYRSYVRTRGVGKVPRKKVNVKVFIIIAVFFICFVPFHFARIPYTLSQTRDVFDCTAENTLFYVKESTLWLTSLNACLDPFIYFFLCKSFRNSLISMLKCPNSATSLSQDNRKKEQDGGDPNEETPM
Sequence of Cytochrome P450 2C9 (P11712 whole entry): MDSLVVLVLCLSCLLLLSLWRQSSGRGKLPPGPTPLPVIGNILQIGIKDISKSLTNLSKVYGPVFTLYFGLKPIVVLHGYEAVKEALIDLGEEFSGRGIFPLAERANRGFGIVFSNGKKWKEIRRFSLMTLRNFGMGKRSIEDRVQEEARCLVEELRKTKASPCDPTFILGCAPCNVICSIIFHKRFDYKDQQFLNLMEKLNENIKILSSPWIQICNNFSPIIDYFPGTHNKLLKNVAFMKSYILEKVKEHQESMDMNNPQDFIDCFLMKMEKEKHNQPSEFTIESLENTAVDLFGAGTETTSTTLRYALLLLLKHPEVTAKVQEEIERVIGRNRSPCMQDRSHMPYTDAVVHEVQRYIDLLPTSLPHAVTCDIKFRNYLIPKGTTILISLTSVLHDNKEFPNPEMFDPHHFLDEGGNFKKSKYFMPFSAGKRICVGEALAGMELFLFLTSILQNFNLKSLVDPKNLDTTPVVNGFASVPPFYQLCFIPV
Sequence of Cytochrome P450 2D6 (P10635 whole entry): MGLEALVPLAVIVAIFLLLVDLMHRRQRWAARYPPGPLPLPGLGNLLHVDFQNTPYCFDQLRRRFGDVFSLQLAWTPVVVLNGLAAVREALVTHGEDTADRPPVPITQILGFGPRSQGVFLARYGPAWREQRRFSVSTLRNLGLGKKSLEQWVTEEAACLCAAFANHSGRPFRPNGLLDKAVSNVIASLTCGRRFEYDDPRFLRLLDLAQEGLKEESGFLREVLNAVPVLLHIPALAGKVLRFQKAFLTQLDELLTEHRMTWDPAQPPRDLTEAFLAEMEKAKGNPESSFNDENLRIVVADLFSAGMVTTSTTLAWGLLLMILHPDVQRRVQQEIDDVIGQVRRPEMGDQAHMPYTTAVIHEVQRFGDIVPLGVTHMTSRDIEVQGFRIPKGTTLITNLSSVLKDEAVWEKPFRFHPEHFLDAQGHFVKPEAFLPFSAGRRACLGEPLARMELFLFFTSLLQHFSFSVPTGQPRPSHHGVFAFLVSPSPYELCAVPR
Sequence of Cytochrome P450 3A4 (P08684 whole entry): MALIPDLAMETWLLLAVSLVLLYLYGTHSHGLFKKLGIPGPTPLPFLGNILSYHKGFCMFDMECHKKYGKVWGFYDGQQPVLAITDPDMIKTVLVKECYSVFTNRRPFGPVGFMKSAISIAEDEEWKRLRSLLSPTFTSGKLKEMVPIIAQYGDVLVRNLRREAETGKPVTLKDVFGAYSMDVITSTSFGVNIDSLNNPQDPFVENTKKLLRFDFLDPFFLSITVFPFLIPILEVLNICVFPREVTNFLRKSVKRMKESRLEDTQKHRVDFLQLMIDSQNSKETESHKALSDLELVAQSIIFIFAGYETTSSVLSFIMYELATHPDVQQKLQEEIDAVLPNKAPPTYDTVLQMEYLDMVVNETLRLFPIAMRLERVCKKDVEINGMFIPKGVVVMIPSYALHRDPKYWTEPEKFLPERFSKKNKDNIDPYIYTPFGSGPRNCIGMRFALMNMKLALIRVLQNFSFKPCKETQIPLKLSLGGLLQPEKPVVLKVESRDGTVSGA
Sequence of Cytochrome P450 2C19 (P33261 whole entry): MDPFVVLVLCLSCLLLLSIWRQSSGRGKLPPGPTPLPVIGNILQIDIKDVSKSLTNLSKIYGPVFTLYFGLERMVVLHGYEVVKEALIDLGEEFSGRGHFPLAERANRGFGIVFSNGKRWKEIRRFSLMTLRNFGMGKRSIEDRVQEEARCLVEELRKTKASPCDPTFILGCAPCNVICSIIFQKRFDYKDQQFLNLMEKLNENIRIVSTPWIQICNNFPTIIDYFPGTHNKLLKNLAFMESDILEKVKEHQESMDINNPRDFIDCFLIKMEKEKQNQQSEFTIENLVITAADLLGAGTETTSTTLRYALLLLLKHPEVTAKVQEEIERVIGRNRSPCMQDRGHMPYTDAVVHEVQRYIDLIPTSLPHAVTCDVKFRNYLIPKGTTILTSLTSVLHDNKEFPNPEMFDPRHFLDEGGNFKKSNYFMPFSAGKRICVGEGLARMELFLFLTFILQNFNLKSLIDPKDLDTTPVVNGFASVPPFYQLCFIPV

COC(=O)c1cc(NC(=O)Cc2ccc(C)cc2)cc(-c2nc3ccccc3[nH]2)c1
IC50 (P2Y purinoceptor 1): > 100 µM
IC50 (P2Y purinoceptor 2): > 100 µM
IC50 (P2Y purinoceptor 4): > 100 µM
IC50 (P2Y purinoceptor 6): 47.6 µM
IC50 (P2Y purinoceptor 12): > 100 µM
IC50 (Cytochrome P450 1A2): > 30 µM
IC50 (Cytochrome P450 2C9): > 30 µM
IC50 (Cytochrome P450 2C19): > 30 µM
IC50 (Cytochrome P450 2D6): > 30 µM
IC50 (Cytochrome P450 3A4): > 30 µM
half-life [1]: > 300 min
half-life [2]: > 50 h
microsomal CLint [3]: 25.6 µL/min/mg
half-life [4]: 354 min
Cmax ([5]; male, Sprague-Dawley, read-out: Cmax): 964 ng/mL
half-life ([6]; male, Sprague-Dawley): 48 min
Tmax ([7]; male, Sprague-Dawley, read-out: Tmax (converted)): 19 min
AUC(0-t) at 24 h ([8]; male, Sprague-Dawley): 895 ng·h/mL
clearance [9]: 26.1 mL/min/kg
Cmax [10]: 1940 ng/mL
half-life [11]: 96 min
Tmax [12]: 26 min
AUC(0-t) at 24 h ([13]; male, Sprague-Dawley): 1120 ng·h/mL
CL/F [14]: 46.5 mL/min/kg
bioavailability ([15]; male, Sprague-Dawley): 38%
Activity (RAW264.7 [16]): Non-toxic

O=C(O)c1cc(-c2ccc(C3CCNCC3)cc2)c2ccc(-c3ccc(C(F)(F)F)cc3)cc2c1 [PPTN]
Cmax ([5]; iv, 10 mg/kg, 24 h): 1024 ng/mL
t1/2 ([6]; iv, 10 mg/kg, 24 h): 12 min
Tmax ([7]; iv, 10 mg/kg, 24 h): 8 min
AUC ([8]; iv, 10 mg/kg, 24 h): 2411 ng·h/mL
clearance [9]: 11.5 mL/min/kg
Cmax [10]: 1540 ng/mL
half-life [11]: 24 min
Tmax [12]: 17 min
AUC ([13]; po, 20 mg/kg, 24 h): 3001 ng·h/mL
CL/F [14]: 22.1 mL/min/kg
F ([15]; po, 20 mg/kg, 24 h): 12%
Activity (RAW264.7 [17]): 58.7%
Activity (RAW264.7 [18]): 8.93%
